These results are taken from ChEMBL document CHEMBL5728354, “1,2-dihydro-3H-pyrazolo[3,4-d]pyrimidin-3-one derivative as Wee1 inhibitor” (2021).

The target in this experiment is Wee1-like protein kinase (Homo sapiens, UniProt P30291). Nature of the experiment: In Vitro Enzymatic Inhibitory Activity Assay: Experimental Reagents:Basic reaction buffer: 20 mM hydroxyethylpiperazine ethanesulfuric acid (pH 7.5), 10 mM magnesium chloride, 1 mM EGTA, 0.02% Brij35, 0.02 mg/mL bovine serum albumin, 0.1 mM Na3VO4, 2 mM DTT, 1% DMSOEnzyme: Wee-1 concentration is 150 nMMatrix: MBP concentration is 20 μMCompound Treatment:The tested compound was formulated into a 5 mM solution with 100% DMSO, and a 10 points 3-fold gradient dilution was performed with DMSO through an automated pipetting station epMotion 5070.Experiment Procedure:1. Fresh matrix configuration reaction buffer was prepared;2. The Wee-1 was added into the matrix solution and shaked gently;3. DMSO solution of the compound were added into the kinase reaction mixture using an acoustic technique (Echo 550; nanoliter range) and incubated for 20 minutes at room temperature;4. 33P-ATP (specific activity, 10 μCi/μL) was added into the reaction mixture to stimulate the reaction;5. Incubated for 2 hours at room temperature;6. Kinase activity was detected by filter-binding method.
Sequence of Wee1-like protein kinase (P30291 whole entry): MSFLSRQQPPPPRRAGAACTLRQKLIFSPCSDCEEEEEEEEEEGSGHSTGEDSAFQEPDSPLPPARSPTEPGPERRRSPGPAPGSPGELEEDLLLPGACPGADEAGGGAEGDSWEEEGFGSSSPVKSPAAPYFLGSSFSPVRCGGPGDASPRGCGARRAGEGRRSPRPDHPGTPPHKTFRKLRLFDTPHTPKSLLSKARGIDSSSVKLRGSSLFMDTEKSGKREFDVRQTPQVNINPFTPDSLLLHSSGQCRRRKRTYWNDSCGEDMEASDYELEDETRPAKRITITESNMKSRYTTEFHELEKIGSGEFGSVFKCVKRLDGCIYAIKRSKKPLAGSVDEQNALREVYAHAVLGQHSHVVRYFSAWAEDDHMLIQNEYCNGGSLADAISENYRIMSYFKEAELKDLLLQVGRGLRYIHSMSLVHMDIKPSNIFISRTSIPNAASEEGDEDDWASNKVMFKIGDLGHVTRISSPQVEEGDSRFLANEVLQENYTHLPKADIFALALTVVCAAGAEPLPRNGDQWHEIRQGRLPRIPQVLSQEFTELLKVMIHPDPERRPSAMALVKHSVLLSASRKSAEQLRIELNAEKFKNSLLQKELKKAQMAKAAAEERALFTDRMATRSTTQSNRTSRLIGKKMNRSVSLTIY
`C=CCn1c2nc(Nc3ccc(N4CCC5(CCN(C)CC5)CC4)cc3)ncc2c(=O)n1-c1ccccc1Cl`: the IC50 worked out at 620 nM.
With `C=CCn1c(=O)c2cnc(Nc3ccc(N4CCC5(CCN(C)CC5)CC4)cn3)nc2n1-c1cccc(C(C)(C)O)n1`, the IC50 was 64.6 nM.
As to `C=CCn1c(=O)c2cnc(Nc3ccc(N4CCC5(CCN(C)CC5)CC4)cc3)nc2n1-c1cnccn1`, the IC50 worked out at 90.4 nM.
